Holding throughout (assay type): biochemical
Experiment [1] has as its target T1, CYP3A4 (Homo sapiens, UniProt P08684). The experiment is described as follows: IC50 vs CYP3A by inhibition of lopinavir metabolism in human liver microsomes. Further details: 0.01 mg/mL protein human liver microsomes (BD Gentest); tissue BD Gentest; host or cells: human liver microsomes. To be noted: 1.5 μM lopinavir, 0.01 mg/mL human liver microsomes, 8 min at 37° C.; read-out: CYP IC50 (nM) 3A4 (LPV). The method, then:
Determination of IC50 vs CYP3A by Measurement of Inhibition of Lopinavir Metabolism
This assay was performed in a standard 96-well plate design. IC50 values were calculated from the percent inhibition observed for each test compound at 6 concentrations (for example, 0.098, 0.391, 1.56, 6.25, 25 and 100 nM). The incubation substrate mix contains 1.5 μM lopinavir, 0.01 mg/mL protein human liver microsomes (BD Gentest), 1 mM NAPDH, 3.3 mM MgCl2 and 100 mM potassium phosphate buffer (pH 7.4). The production of the sum of three hydroxylated metabolites (M2: 6-hydroxy lopinavir, M3: 4-hydroxy lopinavir, M4: 4-hydroxy lopinavir (epimer of M3), Kumar et al., 1999) was determined after incubation for 8 min at 37° C. Quantitation of the metabolite peak area ratio against an internal standard (tolbutamide) was determined by LC/MS/MS analysis following acetonitrile treatment of the incubations.
Samples were analyzed in the MRM mode with a SCIEX API-4000 mass spectrometer (Applied Biosystems, Foster City, Calif.), with a Shimadzu LC-20 AD pump (Shimadzu corporation, Kyoto, JP) and a CTC PAL autosampler (Agilent Technologies, Switzerland). A Phenomenex, Luna, 5 μm, 100 A, 2.00×30 mm HPLC column was used for the separation. The mobile phases were: (A) 0.1% formic acid in water and (B) 0.1% formic acid in acetonitrile. The binary gradient was as follows.
The peak area ratio of the analyte to the internal standard was used to quantify the metabolite. The values of peak area ratios in the presence of test compound were compared to those of maximum or minimum controls and were expressed as % inhibition by interpolating between the maximum and minimum peak area ratios. Incubations with no inhibitor were defined as the maxima and with 5 μM ketoconazole were defined as the minima.
The following equation was used to calculate the % inhibition: [1−[(X−Low control)/(High control−Low control)]]*100
For the IC50 calculation, SigmaPlot was used to plot the mean % inhibition versus the test compound concentrations and for non-linear regression analysis of the data. Depending on the range of data points defining the inhibition curve, the data may have been fit to the 4-parameter logistic equation.
For orientation: Microsomes from liver hold many membrane-bound enzymes, among them those of drug oxidation.
Target sequence in this assay (P08684 2-503): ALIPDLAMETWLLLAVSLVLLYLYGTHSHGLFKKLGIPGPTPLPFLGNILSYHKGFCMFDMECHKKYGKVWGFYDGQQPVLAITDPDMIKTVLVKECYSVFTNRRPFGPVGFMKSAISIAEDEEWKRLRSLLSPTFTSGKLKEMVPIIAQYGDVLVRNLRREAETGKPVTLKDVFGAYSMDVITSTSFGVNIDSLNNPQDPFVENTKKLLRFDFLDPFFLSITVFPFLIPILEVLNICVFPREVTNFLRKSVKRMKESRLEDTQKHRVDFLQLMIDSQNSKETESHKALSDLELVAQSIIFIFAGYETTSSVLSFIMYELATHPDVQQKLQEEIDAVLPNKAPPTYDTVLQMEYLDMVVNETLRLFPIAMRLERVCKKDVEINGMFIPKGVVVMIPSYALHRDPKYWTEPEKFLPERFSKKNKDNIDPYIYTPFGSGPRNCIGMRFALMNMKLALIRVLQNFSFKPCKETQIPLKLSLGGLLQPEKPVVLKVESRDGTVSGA

In experiment [2] the target is T2, CYP1A2 (Homo sapiens, UniProt P05177).
T2 construct: 0.1 mg/mL protein human liver microsomes (BD Gentest); tissue BD Gentest; host or cells: human liver microsomes
T2 sequence (P05177 1-516): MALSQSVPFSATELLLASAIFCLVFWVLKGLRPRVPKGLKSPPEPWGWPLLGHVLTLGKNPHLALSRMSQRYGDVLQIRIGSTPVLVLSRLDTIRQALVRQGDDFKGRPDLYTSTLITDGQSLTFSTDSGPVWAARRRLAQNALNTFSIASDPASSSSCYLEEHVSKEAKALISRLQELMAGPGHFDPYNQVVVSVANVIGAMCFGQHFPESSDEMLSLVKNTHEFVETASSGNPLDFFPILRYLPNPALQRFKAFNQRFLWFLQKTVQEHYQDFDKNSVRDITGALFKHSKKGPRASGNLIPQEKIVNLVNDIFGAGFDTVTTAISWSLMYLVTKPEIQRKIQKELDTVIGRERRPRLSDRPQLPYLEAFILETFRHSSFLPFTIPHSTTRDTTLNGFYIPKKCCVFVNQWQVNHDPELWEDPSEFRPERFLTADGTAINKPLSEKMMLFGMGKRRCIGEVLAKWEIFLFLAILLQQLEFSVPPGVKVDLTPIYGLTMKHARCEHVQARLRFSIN
The experiment is described as follows: Cocktail assay for CYPs, phenacetin O-deethylation (CYP1A2), human liver microsomes. To be noted: 10 μM phenacetin, 0.1 mg/mL human liver microsomes, 10 min at 37° C.; read-out: CYP IC50 (nM) 1A2. The method, then: (§1) Determination of IC50 in a Cocktail Assay for CYPs 1A2, 2C9, 2C19, 2D6 and 3A4:
(§2) This assay was performed in a standard 96-well plate design. IC50 values were calculated from the percent inhibition observed for each test compound at 6 concentrations (for example, 0.0032, 0.016, 0.08, 0.4, 2 and 10 μM). The incubation substrate mix contains 10 μM phenacetin (1A2), 5 μM diclofenac (2C9), 30 μM mephenytoin (2C19), 5 μM dextromethorphan (2D6) and 2 μM midazolam (3A4), 0.1 mg/mL protein human liver microsomes (BD Gentest), 1 mM NAPDH, 3.3 mM MgCl2 and 100 mM potassium phosphate buffer (pH 7.4). The production of the metabolite of each probe substrate was determined after incubation for 10 min at 37° C. Quantitation of the metabolite peak area ratio against an internal standard (tolbutamide) was determined by LC/MS/MS analysis following acetonitrile treatment of the incubations.
(§3) Samples were analyzed in the MRM mode with a SCIEX API-4000 mass spectrometer (Applied Biosystems, Foster City, Calif.), with a Shimadzu LC-20 AD pump (Shimadzu corporation, Kyoto, JP) and a CTC PAL autosampler (Agilent Technologies, Switzerland). A Phenomenex, Luna, […], 100 A, 2.00×30 mm HPLC column was used for the separation. The mobile phases were: (A) 0.1% formic acid in water and (B) 0.1% formic acid in acetonitrile. The binary gradient was as follows.
(§4) The peak area ratio of the analyte to the internal standard was used to quantify the metabolite. The values of peak area ratios in the presence of test compound were compared to those of maximum or minimum controls and were expressed as % inhibition by interpolating between the maximum and minimum peak area ratios. Incubations with no inhibitor were defined as the maxima. The following equation was used to calculate the % inhibition: [1−[(X−Low control)/(High control−Low control)]]*100 For the IC50 calculation, SigmaPlot was used to plot the mean % inhibition versus the test compound concentrations and for non-linear regression analysis of the data. Depending on the range of data points defining the inhibition curve, the data may have been fit to the 4-parameter logistic equation.

Experiment [3] addresses T3, CYP2C19 (Homo sapiens, UniProt P33261).
T3 construct: 0.1 mg/mL protein human liver microsomes (BD Gentest); tissue BD Gentest; host or cells: human liver microsomes
The experiment is described as follows: Cocktail assay for CYPs, mephenytoin 4′-hydroxylation (CYP2C19), human liver microsomes. Conditions: 30 μM mephenytoin, 0.1 mg/mL human liver microsomes, 10 min at 37° C.; read-out: CYP IC50 (nM) 2C19. The method, then:
as §1
as §2, with “IC50 values were calculated from the percent inhibition observed for each test compound at 6 concentrations (for example, 0.0032, 0.016, 0.08, 0.4, 2 and 10 μM).” left out
as §3, §4

The target of experiment [4] is T4, CYP2D6 (Homo sapiens, UniProt P10635).
T4 construct: 0.1 mg/mL protein human liver microsomes (BD Gentest); tissue BD Gentest; host or cells: human liver microsomes
The experiment is described as follows: Cocktail assay for CYPs, dextromethorphan O-demethylation (CYP2D6), human liver microsomes. Conditions: 5 μM dextromethorphan, 0.1 mg/mL human liver microsomes, 10 min at 37° C.; read-out: CYP IC50 (nM) 2D6. The method, then:
as §1, §2, §3, §4

For experiment [5], the target named is T5, CYP2C9 (Homo sapiens, UniProt P11712).
T5 construct: 0.1 mg/mL protein human liver microsomes (BD Gentest); tissue BD Gentest; host or cells: human liver microsomes
The experiment is described as follows: Cocktail assay for CYPs, diclofenac 4′-hydroxylation (CYP2C9), human liver microsomes. To be noted: 5 μM diclofenac, 0.1 mg/mL human liver microsomes, 10 min at 37° C.; read-out: CYP IC50 (nM) 2C9. The procedure: as §1
as §2, with “IC50 values were calculated from the percent inhibition observed for each test compound at 6 concentrations (for example, 0.0032, 0.016, 0.08, 0.4, 2 and 10 μM).” left out
as §3, §4

The target of experiment [6] is T1, CYP3A4. The experiment is described as follows: Cocktail assay for CYPs, midazolam 1′-hydroxylation (CYP3A4), human liver microsomes. Further details: 0.1 mg/mL protein human liver microsomes (BD Gentest); tissue BD Gentest; host or cells: human liver microsomes. To be noted: 2 μM midazolam, 0.1 mg/mL human liver microsomes, 10 min at 37° C.; read-out: CYP IC50 (nM) 3A4 (MDZ). The method, then: as §1, §2, §3, §4
Target sequence in this assay (P08684 whole entry): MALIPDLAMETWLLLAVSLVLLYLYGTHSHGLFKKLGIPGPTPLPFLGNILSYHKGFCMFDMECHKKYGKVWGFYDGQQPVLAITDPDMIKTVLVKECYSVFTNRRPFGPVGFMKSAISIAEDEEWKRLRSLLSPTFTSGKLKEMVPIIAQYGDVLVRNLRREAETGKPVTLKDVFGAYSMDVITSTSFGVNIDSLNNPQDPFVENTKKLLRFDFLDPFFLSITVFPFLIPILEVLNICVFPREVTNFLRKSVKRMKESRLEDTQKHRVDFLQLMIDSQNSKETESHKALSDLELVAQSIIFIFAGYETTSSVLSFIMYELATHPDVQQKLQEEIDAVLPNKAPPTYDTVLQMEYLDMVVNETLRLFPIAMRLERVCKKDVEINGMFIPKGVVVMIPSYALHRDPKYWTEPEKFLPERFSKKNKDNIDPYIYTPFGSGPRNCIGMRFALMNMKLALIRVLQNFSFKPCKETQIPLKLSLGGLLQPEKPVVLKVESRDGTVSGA

Some results are limits rather than exact numbers.

As a reminder, the IC50 is the point on the concentration scale where inhibition reaches its midpoint.

T4 sequence (P10635 whole entry): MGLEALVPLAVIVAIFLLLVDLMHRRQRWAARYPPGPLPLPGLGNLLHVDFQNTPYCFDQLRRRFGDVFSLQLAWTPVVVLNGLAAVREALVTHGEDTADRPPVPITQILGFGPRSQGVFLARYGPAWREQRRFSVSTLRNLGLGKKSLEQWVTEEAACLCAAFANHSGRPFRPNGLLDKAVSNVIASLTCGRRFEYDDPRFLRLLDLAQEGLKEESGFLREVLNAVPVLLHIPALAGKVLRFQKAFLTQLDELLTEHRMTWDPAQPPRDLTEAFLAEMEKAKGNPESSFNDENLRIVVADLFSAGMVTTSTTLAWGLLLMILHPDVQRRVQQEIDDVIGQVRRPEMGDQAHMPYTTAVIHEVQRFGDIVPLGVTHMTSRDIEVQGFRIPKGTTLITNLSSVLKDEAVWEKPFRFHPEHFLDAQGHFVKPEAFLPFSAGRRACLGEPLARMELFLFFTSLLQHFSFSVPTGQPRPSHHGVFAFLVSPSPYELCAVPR
T5 sequence (P11712 whole entry): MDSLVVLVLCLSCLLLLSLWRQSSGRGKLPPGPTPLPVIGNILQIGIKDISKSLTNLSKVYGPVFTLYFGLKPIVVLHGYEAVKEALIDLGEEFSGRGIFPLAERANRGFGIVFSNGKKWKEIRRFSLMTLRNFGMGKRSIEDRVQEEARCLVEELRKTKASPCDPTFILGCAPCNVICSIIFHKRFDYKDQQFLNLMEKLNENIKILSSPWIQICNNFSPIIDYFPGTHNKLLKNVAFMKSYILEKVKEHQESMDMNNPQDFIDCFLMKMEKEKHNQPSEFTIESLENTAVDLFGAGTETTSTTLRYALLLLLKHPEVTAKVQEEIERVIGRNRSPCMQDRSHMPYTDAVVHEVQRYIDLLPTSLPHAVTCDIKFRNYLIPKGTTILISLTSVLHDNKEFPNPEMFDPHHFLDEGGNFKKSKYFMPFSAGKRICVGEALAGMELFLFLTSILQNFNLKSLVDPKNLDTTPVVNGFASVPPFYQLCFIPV
T3 sequence (P33261 whole entry): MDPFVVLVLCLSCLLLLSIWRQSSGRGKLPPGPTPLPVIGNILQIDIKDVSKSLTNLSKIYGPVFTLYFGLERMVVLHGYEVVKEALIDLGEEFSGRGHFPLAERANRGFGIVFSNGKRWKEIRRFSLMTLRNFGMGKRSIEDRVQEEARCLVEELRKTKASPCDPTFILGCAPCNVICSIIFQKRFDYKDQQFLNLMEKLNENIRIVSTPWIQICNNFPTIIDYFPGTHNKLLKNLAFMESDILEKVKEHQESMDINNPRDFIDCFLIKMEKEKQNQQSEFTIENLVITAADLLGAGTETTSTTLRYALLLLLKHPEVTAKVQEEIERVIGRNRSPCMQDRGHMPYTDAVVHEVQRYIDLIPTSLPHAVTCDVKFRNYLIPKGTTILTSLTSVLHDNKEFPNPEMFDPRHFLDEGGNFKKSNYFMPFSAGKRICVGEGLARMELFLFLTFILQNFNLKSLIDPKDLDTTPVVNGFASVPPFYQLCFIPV

With `CC(=O)Nc1ncc(S(=O)(=O)NC2(c3ccc(-c4cncn4[C@H](C)c4ccc(F)cc4)cc3)CC2)s1` [Compound 10, (R)—N-(5-(N-(1-(4-(1-(1-(4-fluorophenyl)ethyl)-1H-imidazol-5-yl)phenyl)cyclopropyl)sulfamoyl)thiazol-2-yl)acetamide], the half-inhibitory concentration (IC50) in experiment [1] is above 100 nM; in experiment [2], 8480 nM; in experiment [3], above 10000 nM; in experiment [4], 9200 nM; in experiment [5], above 10000 nM; in experiment [6], 192 nM.

As for `O=C(C1CCOCC1)N1CCCC1c1ccccc1-c1cncn1CCc1ccc(F)cc1` (stereo not drawn) [Compound 41, (2-(2-(1-(4-fluorophenethyl)-1H-imidazol-5-yl)phenyl)pyrrolidin-1-yl)(tetrahydro-2H-pyran-4-yl)methanone], the half-maximal inhibitory concentration (IC50) in experiment [1] was 11.1 nM; in experiment [2], above 10000 nM; in experiment [3], above 10000 nM; in experiment [4], above 10000 nM; in experiment [5], above 10000 nM; in experiment [6], 10.7 nM.

As to `CN(C)c1ccc(S(=O)(=O)N2CCCC2c2ccccc2-c2cncn2CCc2ccc(F)cc2)cn1` (single isomer, unassigned) [Compound 28b, (R or S)-5-((2-(2-(1-(4-fluorophenethyl)-1H-imidazol-5-yl)phenyl)pyrrolidin-1-yl)sulfonyl)-N,N-dimethylpyridin-2-amine], the half-inhibitory concentration (IC50) in experiment [1] is 10.1 nM; in experiment [2] it was above 10000 nM; in experiment [3], 4980 nM; in experiment [4] it was above 10000 nM; in experiment [5] it was 1150 nM; in experiment [6], 11.8 nM.

In the case of `O=C(C1CCOCC1)N1CCCC1c1cccc(-c2cncn2CCc2ccc(F)cc2)c1` (single isomer, unassigned) [Compound 49a, (R or S)-(2-(3-(1-(4-fluorophenethyl)-1H-imidazol-5-yl)phenyl)pyrrolidin-1-yl)(tetrahydro-2H-pyran-4-yl)methanone], the IC50 in experiment [1] was 29.6 nM; in experiment [2], above 10000 nM; in experiment [3], 3830 nM; in experiment [4], 4700 nM; in experiment [5], 9740 nM; in experiment [6] it was 30.1 nM.

Consider `CC(C)OC(=O)N1CCCC1c1cccc(-c2cncn2CCc2ccc(F)cc2)c1` (stereo not drawn) [Compound 56, Isopropyl 2-(3-(1-(4-fluorophenethyl)-1H-imidazol-5-yl)phenyl) pyrrolidine-1-carboxylate], for which the half-inhibitory concentration (IC50) came to 11.8 nM in experiment [1]; 3400 nM in experiment [2]; 452 nM in experiment [3]; 4150 nM in experiment [4]; 798 nM in experiment [5]; 18.8 nM in experiment [6].

For `O=C(c1cccnc1)N1CCCC1c1ccccc1-c1cncn1CCc1ccc(F)cc1` (single isomer, unassigned) [Compound 42a, (R or S)-(2-(2-(1-(4-fluorophenethyl)-1H-imidazol-5-yl)phenyl)pyrrolidin-1-yl) (pyridin-3-yl) methanone], the IC50 in experiment [1] is at least 100 nM; in experiment [2], above 10000 nM; in experiment [3] it was above 10000 nM; in experiment [4], 1830 nM; in experiment [5], above 10000 nM; in experiment [6] it was 64.4 nM.

Turning to `CN1CCN(c2ncc(S(=O)(=O)N3CCc4c(cccc4-c4cncn4CCc4ccc(F)cc4)C3)s2)CC1` [Compound 58, 5-((5-(1-(4-fluorophenethyl)-1H-imidazol-5-yl)-3,4-dihydroisoquinolin-2(1H)-yl)sulfonyl)-2-(4-methylpiperazin-1-yl)thiazole], the 50% inhibitory concentration (IC50) was 1.9 nM in experiment [1]; above 10000 nM in experiment [2]; 2830 nM in experiment [3]; 2170 nM in experiment [4]; 1350 nM in experiment [5]; 4.5 nM in experiment [6].

`CC(NS(=O)(=O)c1cnc(N2CCN(C)CC2)s1)c1ccc(-c2cncn2CCc2ccc(F)cc2)cc1` (stereo not drawn) [Compound 3, N-(1-(4-(1-(4-fluorophenethyl)-1H-imidazol-5-yl)phenyl)ethyl)-2-(4-methylpiperazin-1-yl)thiazole-5-sulfonamide]: the IC50 in experiment [1] was 14 nM; in experiment [2], above 10000 nM; in experiment [3] it was above 10000 nM; in experiment [4] it was 2530 nM; in experiment [5], 4300 nM; in experiment [6] it was 22 nM.

For the compound `Cn1cncc1-c1ccccc1C1CCCN1S(=O)(=O)c1cnc(N2CCN3C[C@H](O)C[C@H]3C2)s1` (stereo partly drawn) [Compound 24, (7R,8aS)-2-(5-((2-(2-(1-methyl-1H-imidazol-5-yl)phenyl)pyrrolidin-1-yl)sulfonyl)thiazol-2-yl)octahydro-pyrrolo[1,2-a] pyrazin-7-ol], the IC50 is 29.5 nM in experiment [1]; above 10000 nM in experiment [2]; above 10000 nM in experiment [3]; above 10000 nM in experiment [4]; above 10000 nM in experiment [5]; 32.5 nM in experiment [6].

Source of the values: US9975888B2, “Aryl linked imidazole and triazole derivatives and methods of use thereof for improving the pharmacokinetics of a drug” (MERCK SHARP & DOHME CORP., priority 2013, dated 2018).
